In patent US5736556A, “Tropane-2-aldoxime derivatives as nevro transmitter reuptake inhibitors” (NeuroSearch A/S, priority 1994, dated 1998):

How the values were obtained:
[1] = target: T1, dopamine transporter (^3 H-dopamine uptake) (Rattus norvegicus, UniProt P23977); test: In vitro inhibition of ^3 H-dopamine (^3 H-DA) uptake in striatal synaptosomes; format: biochemical, rat (male Wistar); conditions: ^3 H-DA 1 nM, 25 min at 37° C.
T1 construct: Corpi striati from male Wistar rats (150-200 g) are homogenized; from tissue; host or cells: P2 synaptosomes of corpus striatum, male Wistar rats
T1 sequence (P23977 whole entry): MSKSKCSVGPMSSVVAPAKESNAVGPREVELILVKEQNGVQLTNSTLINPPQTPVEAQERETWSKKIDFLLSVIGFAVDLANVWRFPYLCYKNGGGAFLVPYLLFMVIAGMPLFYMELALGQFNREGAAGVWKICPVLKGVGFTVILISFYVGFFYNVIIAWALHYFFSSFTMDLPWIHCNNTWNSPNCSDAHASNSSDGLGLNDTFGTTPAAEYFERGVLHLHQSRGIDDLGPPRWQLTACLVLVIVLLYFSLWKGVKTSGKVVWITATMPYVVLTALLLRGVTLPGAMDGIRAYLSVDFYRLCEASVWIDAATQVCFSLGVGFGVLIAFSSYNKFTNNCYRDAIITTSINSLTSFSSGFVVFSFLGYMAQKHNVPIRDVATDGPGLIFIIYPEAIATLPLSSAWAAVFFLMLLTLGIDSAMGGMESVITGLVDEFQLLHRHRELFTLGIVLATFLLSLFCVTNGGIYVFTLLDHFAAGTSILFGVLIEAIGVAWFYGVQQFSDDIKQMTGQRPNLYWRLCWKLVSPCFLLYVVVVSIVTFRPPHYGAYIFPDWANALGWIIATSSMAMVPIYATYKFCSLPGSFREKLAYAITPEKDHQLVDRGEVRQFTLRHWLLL
Text: (§1) The compounds of the invention have also been tested for their ability to inhibit reuptake of dopamine(DA) noradrenalin(NA) and serotonin(5-HT) in synaptosomes.
(§2) Specific neurotransmitter transporters/uptake sites on nerve terminals presumably function to terminate neuronal signaling by removing the neurotransmitters dopamine, noradrenaline and serotonin, respectively, from the synaptic cleft. The activity of the transporter integral proteins can be measured in vitro by synaptosomal uptake of ^3 H-dopamine, ^3 H-noradrenaline and ^3 H-serotonine, respectively.
In vitro inhibition of ^3 H-dopamine (^3 H-DA) uptake in striatal synaptosomes
(§3) Tissue preparations: Preparations are performed at 0°-4° C. unless otherwise indicated. Corpi striati from male Wistar rats (150-200 g) are homogenized for 5-10 sec in 100 volumes of ice-cold 0.32M sucrose containing 1 mM pargyline using an Ultra-Turrax homogenizer. Monoamine oxidase activity will be inhibited in the presence of pargyline. The homogenate is centrifuged at 1000×g for 10 min. The resulting supermatant is then centrifuged at 27,000×g for 50 min and the supernatant is discarded. The pellet (P2) is resuspended in oxygenated (equilibrated with an atmosphere of 96% O2 : 4% CO2 for at least 30 min) Krebs-Ringer incubation buffer (8000 ml per g of original tissue) at pH 7.2 containing 122 mM NaCl, 0.16 mM EDTA, 4.8 mM KCl, 12.7 mM Na2 HPO4, 3.0 mM NaH2 PO4, 1.2 mM MgSO4, 1 mM CaCl2, 10 mM glucose and 1 mM ascorbic acid.
(§4) Assay: Aliquots of 4.0 ml tissue suspension are added to 100 μl of test solution and 100 μl of ^3 H-DA (1 nM, final concentration), mixed and incubated for 25 min at 37° C. Non-specific uptake is determined using benztropine (10 μM, final concentration). After incubation the samples are poured directly onto Whatman GF/C glass fibre filters under suction. […] The amount of radioactivity on the filters is determined by conventional liquid scintillation counting. Specific uptake is calculated as the difference between total uptake and non-specific uptake. […]

[2] = target: T2, ^3 H-noradrenaline uptake (noradrenaline transporter) (Rattus norvegicus, UniProt Q63380); test: In vitro inhibition of ^3 H-noradrenaline (^3 H-NA) uptake in hippocampal synaptosomes; format: biochemical, rat (male Wistar); conditions: ^3 H-NA 1 nM, 90 min at 37° C.
T2 construct: Hippocampi from male Wistar rats (150-200 g) are homogenized; from tissue; host or cells: P2 synaptosomes of hippocampus, male Wistar rats
T2 sequence (Q63380 1-617): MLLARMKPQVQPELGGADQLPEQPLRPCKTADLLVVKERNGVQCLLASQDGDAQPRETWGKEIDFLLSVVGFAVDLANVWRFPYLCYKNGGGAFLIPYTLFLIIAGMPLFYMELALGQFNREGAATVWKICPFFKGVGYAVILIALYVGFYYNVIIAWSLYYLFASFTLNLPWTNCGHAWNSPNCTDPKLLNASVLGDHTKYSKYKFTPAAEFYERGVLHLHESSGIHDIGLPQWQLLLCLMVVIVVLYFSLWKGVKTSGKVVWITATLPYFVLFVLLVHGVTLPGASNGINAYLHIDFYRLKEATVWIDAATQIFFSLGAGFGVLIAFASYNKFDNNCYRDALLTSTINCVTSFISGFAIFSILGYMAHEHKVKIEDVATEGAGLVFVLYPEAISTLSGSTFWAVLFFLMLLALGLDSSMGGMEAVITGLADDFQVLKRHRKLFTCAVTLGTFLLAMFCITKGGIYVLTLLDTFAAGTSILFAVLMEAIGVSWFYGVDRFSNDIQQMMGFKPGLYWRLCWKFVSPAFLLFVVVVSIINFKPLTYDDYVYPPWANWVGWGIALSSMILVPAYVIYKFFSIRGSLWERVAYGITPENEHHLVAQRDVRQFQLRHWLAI
Text: as §1, §2
In vitro inhibition of ^3 H-noradrenaline (^3 H-NA) uptake in hippocampal synaptosomes
as §3, with “Tissue preparation:” for “Tissue preparations:”, “indicated. Hippocampi” for “indicated. Corpi striati”, “resulting supernatant” for “resulting supermatant”, “buffer (2000” for “buffer (8000”, “MgSO4, 0.97” for “MgSO4, 1”
as §4, with “H-NA” for “H-DA”, “90” for “25”, “desipramine (1” for “benztropine (10”

[3] = tested on: stereotyped behaviour of the rat; test: Abnormal stereotyped behaviour (side effect profile); format: in vivo; design: key to Activity (high intensity stereotypy): +: only stereotyped sniffing; ++: stereotyped sniffing and episodic licking; +++: continuous licking and/or biting gnawing
Text: Side Effect Profile of the Compounds of the Present Invention
The side effects of cocaine and the central stimulant amphetamine derivatives involve central excitement and stimulation in animals including primates and these effects can also be observed in humans. A serious side effect of cocaine and of the amphetamine derivatives includes also the ability to provoke toxic psychotic symptoms closely resembling the mental disease schizophrenia and these include halucinations, paranoia and abnormal bizarre stereotyped mental activity and stereotypy.
The induction of stereotyped abnormal behavior in rodents thus also represents one of the most used animal models of schizophrenia in models for antipsychotic neuroleptic drugs (including haloperidol and chlorpromazine).
The development of toxic abnormal stereotyped amphetamine syndrome as described below may predict a toxic central stimulant side effect of dopamine releasing compounds in humans.
Classification of the Abnormal Stereotyped Behaviour
In general, the abnormal stereotyped behaviour after administration of amphetamine and cocaine-like central stimulant drugs can be classified into "low" and "high" intensity scores of stereotyped behaviour. […]

[4] = tested on: MPTP-induced Parkinsonism in Marmoset Monkeys; test: Antagonism of MTPT-induced Parkinsonism in Marmoset Monkeys; format: in vivo, common marmoset; conditions: MPTP-treated marmosets, oral gavage, 0.1 to 2.5 mg/kg; for locomotor activity: 10 h
Text: Antagonism of MTPT-induced Parkinsonism in Marmoset Monkeys
Administration of MPTP (1-methyl-4-phenyl-1,2,3,6-tetrahydropyridine, hydrochloride) to monkeys induce a lesion of the dopaminergic system in the brain and gives rise to parkinsonian symptoms. By subsequent administration of test-compounds, the ability of the compounds to alleviate the parkinsonian signs can be tested.
Common marmosets (weighing 350-400 g, aged 3-5 years and of either sex) were used in the study. Animals were housed alone under standard conditions at a temperature of […] and 50% relative humidity using a 12 hour light-dark cycle. Animals had free access to food and Water.
Some months before locomotor or behavioural testing began, animals were treated with MPTP (1-methyl-4-phenyl-1,2,3,6-tetrahydropyridine, hydrochloride) dissolved in sterile 0.9% saline in doses of 2 mg/kg administered subcutaneously daily for 5 days or until a clear parkinsonian state developed. The cumulative doses administered ranged between 8-12 mg/kg. During MPTP treatment and throughout the following 2-3 weeks the animals were hand fed until they had recovered enough to be able to feed themselves.
Test compounds was dissolved in 100% Tween 80 with warming to 40°-50° C. and then diluted with water. Test compounds was given by oral gavage in a volume of 2 ml/kg. In addition test compound vehicle was administered on each experimental day for comparison with drug treatments. Each animal was treated with vehicle or one of the three doses of test compound over the following weeks, with a one week period of recovery between treatments.
Rating of disability: The disability of animals were scored as follows; alertness (normal 0, sleepy 2); reaction to stimuli (normal 0, reduced 1, slow 2, absent 3); checking movements (present 0, reduced 1, absent 2); attention and eye movements (normal 0, abnormal 1); posture (normal 0, abnormal trunk 1, abnormal limbs 1, abnormal tail 1, or grossly abnormal 4); balance/coordination (normal 0, impaired 1, unstable 2, spontaneous falls 3); vocalization (normal 0, reduced 1, absent 2).
Measurement of locomotor activity: Locomotor activity was measured simultaneously for four individual animals each in a metal cage (50 w×60 l×70 h cm) with transparent plastic doors (50 w×70 h cm) similar to the home cages but fitted with eight horizontally orientated infrared photocells. […] Locomotor counts were measured as the number of light beam interuptions which occured as the animals moved about. These movement counts were accumulated in 30 minutes intervals and recorded for the 10 h duration of experimentation.
Data analysis: The mean (±) s.e.m. was calculated for time courses and accumulated locomotor counts or behavioural disability scores for the different treatment groups.

dopamine transporter [5] = target: dopamine transporter (Mus musculus, UniProt Q61327); conditions: cited from earlier work
Sequence of dopamine transporter (Mus musculus, UniProt Q61327) (Q61327 whole entry): as the sequence (P23977 whole entry) above, with S21P, A57V, A194S, H600R, L619V counted along it

dopamine transporter [6] = target: T3, dopamine transporter (Rattus norvegicus, UniProt P23977); conditions: background, in vitro, in words; cited from earlier work
T3 construct: Corpus striatum from male Wistar rats (150-200 g) is homogenized; from tissue; host or cells: corpus striatum of male Wistar rats
T3 sequence (P23977 whole entry): as the sequence (P23977 whole entry) above

[7] = target: T1, dopamine transporter (^3 H-dopamine uptake); conditions: background, in words; cited from earlier work

With `CON=C[C@@H]1[C@@H](c2ccc(Cl)c(Cl)c2)C[C@@H]2CC[C@H]1N2C` (single isomer, unassigned) [(1R,2R,3S)-3-(3,4-dichlorophenyl)-tropane 2-O-methyl-aldoxime, syn-isomere] the IC50 [1] was 3.4 nM and the IC50 [2] was 1.5 nM.
In the case of `CON=C[C@@H]1[C@@H](c2ccc(Cl)c(Cl)c2)C[C@@H]2CC[C@H]1N2C` [NS2214, (1R,2R,3S)-3-(3,4-dichlorophenyl)tropane-2O-methyl-aldoxime], the “Activity (high intensity stereotypy)” value ([3]; 15 mg/kg p.o.) is reported as “+++”, the “lowest dosis giving the activity indicated (stereotypy +++)” value ([3]; p.o.) is reported as 15 mg/kg and the disability scores [4] is reported as “dose-dependent decrease in disability scores”. For the same compound, the locomotor activity [4] was “dose dependent increase in locomotor activity”, the locomotor activity ([4]; listed as NS 2214) was “dose-dependent increase in locomotor activity” and the disability scores ([4]; listed as NS 2214) was “dose dependent decrease in disability scores”.
For `COC(=O)[C@H]1[C@@H](c2ccc(F)cc2)C[C@@H]2CC[C@H]1N2C` [^3 H-WIN 35428], the “time to maximum of specific binding in the striatum” value (dopamine transporter [5]; in vivo, iv) is given as 30 min and the “binding to the dopamine transporter” value (dopamine transporter [6]) is given as “binds selectively and with high affinity to the dopamine transporter complex”.
For `COC(=O)[C@H]1[C@@H](OC(=O)c2ccccc2)C[C@@H]2CC[C@H]1N2C` [cocaine], the “inhibition of ^3 H-dopamine uptake” value [7] is given as “inhibits ^3 H-dopamine uptake”, the “prevention of specific binding of ^3 H-WIN 35428 in vivo” value (dopamine transporter [5]) is given as “partly or completely prevented” and the “binding to the dopamine transporter” value (dopamine transporter [6]) is given as “binds to the dopamine transporter”.
